Source: patent publication US12595226B2, “Carbonate containing lipid compounds and compositions for intracellular delivery of therapeutic agents” (ModernaTX, Inc., priority 2019, dated 2026)

Assay: Residual lipid levels in the liver of mice after LNP administration
Format: in vivo, CD-1 mice
Conditions: calculation assumes a 25 g mouse with a 1.5 g liver, >95% equals very slowly metabolism of the lipid

Row | SMILES | Approx. Percent Total Dose of Parent Lipid Remaining at 24 h
1 | CCCCCCCCC(CCCCCCCC)OC(=O)CCCCCCCN(CCCCCCOC(=O)OCCC(CCCCCC)CCCCCC)CCCNc1c(NC)c(=O)c1=O [Compound 65, Heptadecan-9-yl 8-((6-((((3-hexylnonyl)oxy)carbonyl)oxy)hexyl)(3-((2-(methylamino)-3,4-dioxocyclobut-1-en-1-yl)amino)propyl)amino)octanoate] | >95%
2 | CCCCCCCCC(CCCCCCCC)OC(=O)CCCCCCCN(CCCCCCOC(=O)OCCC(CCCCC)CCCCC)CCCNc1c(NC)c(=O)c1=O [Compound 67, Heptadecan-9-yl 8-((3-((2-(methylamino)-3,4-dioxocyclobut-1-en-1-yl)amino)propyl)(6-((((3-pentyloctyl)oxy)carbonyl)oxy)hexyl)amino)octanoate] | >95%

The next lines start with the values.

Row | Approx. Percent Total Dose of Parent Lipid Remaining at 24 h | SMILES
3 | 51% | CCCCCCCCC(CCCCCCCC)OC(=O)CCCCCCCN(CCO)CCCCCCOC(=O)OCCC(CCCCC)CCCCC [Compound 64, Heptadecan-9-yl 8-((2-hydroxyethyl)(6-((((3-pentyloctyl)oxy)carbonyl)oxy)hexyl)amino)octanoate]
4 | 48% | CCCCCCCCC(CCCCCCCC)OC(=O)CCCCCCCN(CCO)CCCCCCOC(=O)OCCC(CCCCCC)CCCCCC [Compound 66, Heptadecan-9-yl 8-((6-((((3-hexylnonyl)oxy)carbonyl)oxy)hexyl)(2-hydroxyethyl)amino)octanoate]
5 | 2% | CCCCCCCCCOC(=O)OCCCCCCN(CCO)CCCCCCCC(=O)OC(CCCCCCCC)CCCCCCCC [Compound 6, Heptadecan-9-yl 8-((2-hydroxyethyl)(6-(((nonyloxy)carbonyl)oxy)hexyl)amino)octanoate]
